Source: article PMC10855164, “Ligand-Based Design of Selective Peptidomimetic uPA and TMPRSS2 Inhibitors with Arg Bioisosteres” (International Journal of Molecular Sciences, 2024)
Values joined by “and” are separate entries in the source; they are usually repeats but may differ in a detail not shown here. Equal entries are not always repeated.

Key:
Format in all cases: biochemical
factor Xa = target: T1, factor Xa (Homo sapiens, UniProt P00742); assay: colorimetric enzyme inhibition assay, factor Xa (Z-D-Arg-Gly-Arg-pNA); settings: for Ki Factor Xa / Ki: from IC50 by Cheng-Prusoff, n.a. = not active, <80% inhibition at 20 µM; for Selectivity index [SI] Factor Xa: quotient Ki factor Xa / Ki uPA
T1 construct: purchased Bio-techne
Procedure: (§1) The inhibitory activity of the synthesized compounds towards the respective main- and off-target proteases was measured via fluorometric and colorimetric assays. Thus, fluorogenic AMC- or colorimetric pNA-based substrates with a peptide sequence suitable for the tested protease were utilized (see Supplementary Figure S2). At first, the compounds were screened against […] proteases (uPA, TMPRSS2, matriptase, tPA, thrombin, factor Xa) at 20 µM, and a cut-off value of 80% inhibition at this concentration was set, for the differentiation between nonactive (n.a.) and active inhibitors. Due to the reversible inhibition mechanism of the ketobenzothiazole derivates, the IC50 values were determined with Graphpad Prism 9, and afterwards converted to the corresponding Ki values for an adequate comparison between the inhibitory activities of the compounds toward all tested proteases. The Ki values were calculated using the Cheng–Prusoff equation [43].
(§2) Fluorometric inhibition assays
(§3) The inhibitory activities of the compounds against the proteases were determined by enzyme inhibition assays with fluorogenic or colorimetry-based substrates. The fluorescence, caused by cleaved AMC from the fluorogenic substrates (uPA, matriptase, TMPRSS2, thrombin), was measured in white flat-bottom 96-well plates from Greiner Bio-One using a Tecan Infinite F200 Pro plate reader. The absorption, caused by cleaved pNA from colorimetric substrates (factor Xa and tPA), was measured in transparent flat-bottom 96-well plates from Greiner Bio-One using a Tecan Spark 10M plate reader. All measurements with the main-target proteases (uPA and TMRPSS2) were performed as triplicates and with the off-target proteases (matriptase, factor Xa, tPA, thrombin) as duplicates. The substrates and the compounds were prepared as stock solutions in DMSO. Each well contained a total volume of 200 µL, consisting of 185 µL buffer, 5 µL inhibitor in DMSO or pure DMSO as negative control, 5 µL substrate in DMSO and 5 µL enzyme solution in buffer. Dilution series were prepared for the determination of the inhibition constants. The fluorescence signal and absorbance were measured every 30 s for 10 min at 25 or 37 °C with the corresponding excitation/emission (λex = 380 nm / λem = 460 nm) and absorbance (λabs = 405 nm) wavelengths, depending on the targeted protease. IC50 values for the reversible inhibitors were calculated with Graphpad Prism 9 by fitting the remaining enzymatic activity to the four parameter IC50 equation with Y [%] as the residual enzyme activity , Ymax as the maximum value of the dose response curve at inhibitor concentrations [I] = 0 µM, Ymin as the minimum value at high inhibitor concentrations and s as the hill coefficient.[1] The fluorescence progress curves and sigmoidal dose-response curve for inhibition of uPa by compound 38 is shown exemplary in Figure S2. […]
(§4) Due to the dependence of the IC50 value on the substrate affinity and concentration, the Ki values were calculated with the Cheng-Prusoff equation, using the final substrate concentration [S] and the Michaelis-Menten constant KM, (2) for appropriate comparison of the inhibitory activities to the other enzymes and inhibitors.[1]
(§5) KM values were determined by fitting to the Michaelis-Menten equation using Graphpad Prism 9 with v [ΔF/min] as the substrate hydrolysis rate, vmax as the maximum slope of the dose-response curve, and the substrate [S] concentration.[1] The different substrates were serially diluted in DMSO. The measurement was done in analogy to the determination of the inhibitory activity, but with 5 µL pure DMSO instead of inhibitor solution. […]
(§6) The following buffers and substrates were used for the respective assays: uPA (50 mM Tris HCl pH = 7.9, 150 mM […]
(§7) TMPRSS2 (25 mM Tris HCl pH = 8.0, 150 mM NaCl, 5 mM CaCl2, 0.001% TX-100, 100 µM Boc-Gln-Ala-Arg-AMC (KM: 68.63 ± 6.64 µM), 25 °C, 3 nM TMPRSS2)[3]; matriptase (50 mM Tris HCl pH = 8.0, 150 mM NaCl, 5 mM CaCl2, […]

uPA = target: T2, uPA (Homo sapiens, UniProt P00749); assay: fluorometric enzyme inhibition assay, uPA (Z-Gly-Gly-Arg-AMC); settings: for Ki uPA / Ki: from IC50 by Cheng-Prusoff, n.a. = not active, <80% inhibition at 20 µM; for Selectivity index [SI] uPA: quotient Ki uPA / Ki TMPRSS2
T2 construct: purchased Sigma Aldrich
Procedure: as §1, §2
The inhibitory activities of the compounds against the proteases were determined by enzyme inhibition assays with fluorogenic or colorimetry-based substrates. The fluorescence, caused by cleaved AMC from the fluorogenic substrates (uPA, matriptase, TMPRSS2, thrombin), was measured in white flat-bottom 96-well plates from Greiner Bio-One using a Tecan Infinite F200 Pro plate reader. The absorption, caused by cleaved pNA from colorimetric substrates (factor Xa and tPA), was measured in transparent flat-bottom 96-well plates from Greiner Bio-One using a Tecan Spark 10M plate reader. All measurements with the main-target proteases (uPA and TMRPSS2) were performed as triplicates and with the off-target proteases (matriptase, factor Xa, tPA, thrombin) as duplicates. The substrates and the compounds were prepared as stock solutions in DMSO. Each well contained a total volume of 200 µL, consisting of 185 µL buffer, 5 µL inhibitor in DMSO or pure DMSO as negative control, 5 µL substrate in DMSO and 5 µL enzyme solution in buffer. Dilution series were prepared for the determination of the inhibition constants. The fluorescence signal and absorbance were measured every 30 s for 10 min at 25 or 37 °C with the corresponding excitation/emission (λex = 380 nm / λem = 460 nm) and absorbance (λabs = 405 nm) wavelengths, depending on the targeted protease. IC50 values for the reversible inhibitors were calculated with Graphpad Prism 9 by fitting the remaining enzymatic activity to the four parameter IC50 equation with Y [%] as the residual enzyme activity , Ymax as the maximum value of the dose response curve at inhibitor concentrations [I] = 0 µM, Ymin as the minimum value at high inhibitor concentrations and s as the hill coefficient.[1] The fluorescence progress curves and sigmoidal dose-response curve for inhibition of uPa by compound 38 is shown exemplary in Figure S2.
Figure S2: (left) Fluorescence progress curves for inhibition of uPa by cpd. 38. (right) Plot showing the respective IC50 value […]
as §4
KM values were determined by fitting to the Michaelis-Menten equation using Graphpad Prism 9 with v [ΔF/min] as the substrate hydrolysis rate, vmax as the maximum slope of the dose-response curve, and the substrate [S] concentration.[1] The different substrates were serially diluted in DMSO. The measurement was done in analogy to the determination of the inhibitory activity, but with 5 µL pure DMSO instead of inhibitor solution. The fluorescence progress curves and Michaelis-Menten curve of the specific substrate of uPA is shown exemplarily […]
Figure S3: (left) Fluorescence progress curves of cleavage of Z-Gly-Gly-Arg-AMC by uPA. (right) Michaelis-Menten curve […]

TMPRSS2 = target: T3, TMPRSS2 (Homo sapiens, UniProt O15393); assay: fluorometric enzyme inhibition assay, TMPRSS2 (Boc-Gln-Ala-Arg-AMC); settings: for Ki TMPRSS2 / Ki: from IC50 by Cheng-Prusoff, n.a. = not active, <80% inhibition at 20 µM; for Selectivity index [SI] TMPRSS2: quotient Ki TMPRSS2 / Ki uPA
T3 construct: purchased Cusabio
Procedure: as §1, §2, §3, §4, §5, §6, §7

thrombin = target: T4, thrombin (Homo sapiens, UniProt P00734); assay: fluorometric enzyme inhibition assay, thrombin (Z-Gly-Gly-Arg-AMC); settings: for Ki Thrombin / Ki: from IC50 by Cheng-Prusoff, n.a. = not active, <80% inhibition at 20 µM; for Selectivity index [SI] Thrombin: quotient Ki thrombin / Ki uPA
T4 construct: purchased Bio-techne
Procedure: as §1, §2, §3, §4, §5, §6, §7

matriptase = target: T5, matriptase (Homo sapiens, UniProt Q9Y5Y6); assay: fluorometric enzyme inhibition assay, matriptase (Boc-Leu-Arg-Arg-AMC); settings: for Ki Matriptase / Ki: from IC50 by Cheng-Prusoff, n.a. = not active, <80% inhibition at 20 µM
T5 construct: catalytic domain of matriptase (uniport: Q9Y5Y6 aa 596–855); hexa-histidine (N); made in house; host or cells: Escherichia coli BL21 Gold (DE3)
T5 sequence (Q9Y5Y6 596-855): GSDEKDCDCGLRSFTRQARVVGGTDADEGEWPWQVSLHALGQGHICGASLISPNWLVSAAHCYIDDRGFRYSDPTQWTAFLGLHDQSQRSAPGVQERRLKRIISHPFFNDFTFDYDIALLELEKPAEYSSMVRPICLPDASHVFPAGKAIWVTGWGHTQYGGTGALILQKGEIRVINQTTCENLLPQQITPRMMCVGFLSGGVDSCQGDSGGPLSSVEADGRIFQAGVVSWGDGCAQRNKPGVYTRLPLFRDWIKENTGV
Procedure: as §1, §2, §3, §4, §5, §6, §7

tPA = target: T6, tPA (Homo sapiens, UniProt P00750); assay: colorimetric enzyme inhibition assay, tPA (N-methylsulfonyl-D-Phe-Gly-Arg-pNA); settings: from IC50 by Cheng-Prusoff; n.a. = not active, <80% inhibition at 20 µM
T6 construct: purchased Sigma Aldrich
Procedure: as §1, §2, §3, §4
KM values were determined by fitting to the Michaelis-Menten equation using Graphpad Prism 9 with v [ΔF/min] as the substrate hydrolysis rate, vmax as the maximum slope of the dose-response curve, and the substrate [S] concentration.[1] The different substrates were serially diluted in DMSO. […]

[1] = quotient Ki matriptase / Ki uPA
[2] = quotient Ki matriptase / Ki TMPRSS2

T3 sequence (O15393 whole entry): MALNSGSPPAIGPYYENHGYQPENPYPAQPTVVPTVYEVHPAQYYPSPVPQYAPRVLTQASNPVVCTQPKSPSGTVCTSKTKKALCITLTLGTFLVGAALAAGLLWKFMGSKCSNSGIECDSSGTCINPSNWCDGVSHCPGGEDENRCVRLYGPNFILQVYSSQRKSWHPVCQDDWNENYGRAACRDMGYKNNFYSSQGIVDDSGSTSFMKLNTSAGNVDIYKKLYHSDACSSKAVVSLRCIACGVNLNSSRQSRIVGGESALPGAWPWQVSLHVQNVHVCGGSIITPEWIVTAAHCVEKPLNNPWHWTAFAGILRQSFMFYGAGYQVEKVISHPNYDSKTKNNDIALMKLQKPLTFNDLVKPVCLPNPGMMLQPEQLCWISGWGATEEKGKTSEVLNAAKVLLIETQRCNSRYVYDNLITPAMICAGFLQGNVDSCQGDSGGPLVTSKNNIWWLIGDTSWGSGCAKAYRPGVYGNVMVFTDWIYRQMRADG
T1 sequence (P00742 235-488 limits assumed): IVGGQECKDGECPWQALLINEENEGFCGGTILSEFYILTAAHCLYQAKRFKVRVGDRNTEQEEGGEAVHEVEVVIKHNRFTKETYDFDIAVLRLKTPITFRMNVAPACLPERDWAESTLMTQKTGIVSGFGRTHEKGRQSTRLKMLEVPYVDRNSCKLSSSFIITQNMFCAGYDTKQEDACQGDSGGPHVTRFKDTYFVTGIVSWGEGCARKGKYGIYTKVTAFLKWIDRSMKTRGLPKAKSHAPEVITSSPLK
T1 sequence (P00742 41-179 partner limits assumed): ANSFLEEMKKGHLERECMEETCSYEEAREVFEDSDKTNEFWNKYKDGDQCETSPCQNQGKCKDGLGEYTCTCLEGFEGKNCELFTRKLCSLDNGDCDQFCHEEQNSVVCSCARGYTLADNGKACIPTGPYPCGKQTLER
T6 sequence (P00750 36-562): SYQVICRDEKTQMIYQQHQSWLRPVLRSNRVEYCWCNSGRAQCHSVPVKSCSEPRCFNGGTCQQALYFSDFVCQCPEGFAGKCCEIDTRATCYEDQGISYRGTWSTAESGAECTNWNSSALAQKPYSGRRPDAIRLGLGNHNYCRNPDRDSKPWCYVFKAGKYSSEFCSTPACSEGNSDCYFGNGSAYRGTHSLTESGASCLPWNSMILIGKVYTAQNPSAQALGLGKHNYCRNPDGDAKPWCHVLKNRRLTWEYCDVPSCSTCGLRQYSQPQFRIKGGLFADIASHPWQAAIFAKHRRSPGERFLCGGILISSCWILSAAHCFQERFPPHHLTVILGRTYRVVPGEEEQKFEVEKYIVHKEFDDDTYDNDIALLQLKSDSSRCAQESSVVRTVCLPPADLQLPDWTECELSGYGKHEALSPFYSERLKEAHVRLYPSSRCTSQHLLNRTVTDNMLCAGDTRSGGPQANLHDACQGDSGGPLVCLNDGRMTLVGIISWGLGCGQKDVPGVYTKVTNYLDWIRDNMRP

Structure (SMILES) | Ki (uPA) [nM] | Ki (TMPRSS2) [nM] | Ki (matriptase) | Selectivity index [SI] uPA (uPA) | Selectivity index [SI] Matriptase (matriptase; [2]) | also measured
CC(=O)NCC(=O)N[C@H](C(=O)N[C@@H](C)C(=O)N[C@@H](Cc1cccc(NC(=N)N)c1)C(=O)c1nc2ccccc2s1)[C@H](C)O [Compound 45] |  |  |  |  |  | Ki Factor Xa (factor Xa): did not show inhibition; Ki uPA (uPA): did not show inhibition; Ki TMPRSS2 (TMPRSS2): did not show inhibition; Ki Thrombin (thrombin): did not show inhibition; Ki Matriptase (matriptase): did not show inhibition; Ki tPA (tPA): did not show inhibition
CC(=O)NCC(=O)NC(C(=O)NC(C)C(=O)NC(CCCNC(=N)N)C(=O)c1nc2ccc(Cl)cc2s1)C(C)O (stereo not shown) [Compound 14c] | 82 ± 6 | 9 ± 1 | 59 ± 9 nM |  |  | Ki (factor Xa): 2450 ± 99 nM; Selectivity index [SI] Factor Xa (factor Xa): 30; Selectivity index [SI] TMPRSS2 (TMPRSS2): 0.1; Ki (thrombin): 456 ± 72 nM; Selectivity index [SI] Thrombin (thrombin): 5; Selectivity index [SI] Matriptase (matriptase; [1]): 0.7
CC(=O)NCC(=O)NC(C(=O)NC(C)C(=O)NC(CCCNC(=N)N)C(=O)c1nc2ccc(Br)cc2s1)C(C)O (stereo not shown) [Compound 14d] | 60 ± 15 | 6 ± 1 | 38 ± 2 nM |  |  | Ki (factor Xa): 2850 ± 844 nM; Selectivity index [SI] Factor Xa (factor Xa): 47; Selectivity index [SI] TMPRSS2 (TMPRSS2): 0.1; Ki (thrombin): 450 ± 69 nM; Selectivity index [SI] Thrombin (thrombin): 8; Selectivity index [SI] Matriptase (matriptase; [1]): 0.6
CC(=O)N[C@@H](CC(N)=O)C(=O)N1CCC[C@H]1C(=O)N[C@@H](Cc1ccc(NC(=N)N)cc1)C(=O)c1nc2ccccc2s1 [Compound 30] | 479 ± 17 | 5 ± 1 | 60 ± 8 nM | 96 | 12 | 
CC(=O)N[C@@H](CC(N)=O)C(=O)N[C@@H](Cc1ccccc1)C(=O)N[C@@H](Cc1ccc(NC(=N)N)cc1)C(=O)c1nc2ccccc2s1 [Compound 31] | 3570 ± 421 | 0.4 ± 0.1 | 252 ± 67 nM | > 5000 | 630 | 
CC(=O)N[C@@H](CC(N)=O)C(=O)N[C@@H](CC1CCCCC1)C(=O)N[C@@H](Cc1ccc(NC(=N)N)cc1)C(=O)c1nc2ccccc2s1 [Compound 32] | 2690 ± 217 | 34 ± 4 | 3330 ± 1140 nM | 79 | 98 | 
CC(=O)NCC(=O)NC(C(=O)NC(C)C(=O)NC(Cc1ccc(NC(=N)N)cc1)C(=O)c1nc2ccccc2s1)C(C)O (stereo not shown) [Compound 29] | 29 ± 2 | 10 ± 4 | 132 nM and 133 nM |  |  | Ki Factor Xa (factor Xa): did not inhibit; Selectivity index [SI] TMPRSS2 (TMPRSS2): 0.3; Ki Thrombin (thrombin): did not inhibit; Selectivity index [SI] Matriptase (matriptase; [1]): 4; Ki tPA (tPA): did not inhibit
CC(=O)NCC(=O)NC(C(=O)NC(C)C(=O)NC(CCCCNC(=N)N)C(=O)c1nc2ccccc2s1)C(C)O (stereo not shown) [Compound 20] |  |  |  |  |  | Ki Factor Xa (factor Xa): did not show inhibition; Ki uPA (uPA): did not show inhibition; Ki TMPRSS2 (TMPRSS2): did not show inhibition; Ki Thrombin (thrombin): did not show inhibition; Ki Matriptase (matriptase): did not show inhibition; Ki tPA (tPA): did not show inhibition
CC(=O)N[C@@H](CC(N)=O)C(=O)N1CCC[C@H]1C(=O)N[C@@H](CC1CCC(NC(=N)N)CC1)C(=O)c1nc2ccccc2s1 (stereo partly shown) [Compound 39] | 936 ± 100 | 44 ± 7 | 1200 ± 181 nM | 21 | 27 | 
CC(=O)NCC(=O)NC(C(=O)NC(C)C(=O)NC(CCCNC(=N)N)C(=O)c1nc2ccc(F)cc2s1)C(C)O (stereo not shown) [Compound 14b] | 388 ± 95 |  |  |  |  | 
CC(=O)NCC(=O)NC(C(=O)NC(C)C(=O)NC(CCCNC(=N)N)C(=O)c1nc2c(s1)CCCC2)C(C)O (stereo not shown) [Compound 15] | 435 ± 33 |  |  |  |  | 
COc1ccc2nc(C(=O)C(CCCNC(=N)N)NC(=O)C(C)NC(=O)C(NC(=O)CNC(C)=O)C(C)O)sc2c1 (stereo not shown) [Compound 14e] | 178 ± 19 |  |  |  |  | 
